# Results published in paper PMC2150390, “High-dose cyclosporin with etoposide--toxicity and pharmacokinetic interaction in children with solid tumours” (British Journal of Cancer, 1998).
# Experiment: Etoposide pharmacokinetics with and without cyclosporin (plasma HPLC, non-compartmental analysis)
# Type: in vivo, human
# Settings: for Clearance Cl+ / Half-life t1/2+ / Area under drug concentration curve AUC+: with cyclosporin; for Clearance Cl+ / Half-life t1/2+ / Area under drug concentration curve AUC+ / Clearance Cl- / Half-life t1/2- / Area under drug concentration curve AUC-: etoposide 150 mg m-2 over 1 hour; for Area under drug concentration curve AUC+ / Area under drug concentration curve AUC-: plasma HPLC, non-compartmental; for Median area under the concentration time curve for etoposide: etoposide 150 mg m-2 i.v.
# [1] = Table 3, patient 1, cyclosporin schedule A
# [2] = Table 3, patient 1, cyclosporin schedule A, without cyclosporin
# [3] = Table 3, patient 2, cyclosporin schedule A
# [4] = Table 3, patient 2, cyclosporin schedule A, without cyclosporin
# [5] = Table 3, patient 4, cyclosporin schedule A
# [6] = Table 3, patient 4, cyclosporin schedule A, without cyclosporin
# [7] = Table 3, patient 5, cyclosporin schedule A
# [8] = Table 3, patient 5, cyclosporin schedule A, without cyclosporin
# [9] = Table 3, patient 6, cyclosporin schedule A
# [10] = Table 3, patient 6, cyclosporin schedule A, without cyclosporin
# [11] = Table 3, patient 7, cyclosporin schedule A
# [12] = Table 3, patient 7, cyclosporin schedule A, without cyclosporin
# [13] = Table 3, patient 8, cyclosporin schedule A
# [14] = Table 3, patient 8, cyclosporin schedule A, without cyclosporin
# [15] = Table 3, patient 9, cyclosporin schedule B
# [16] = Table 3, patient 9, cyclosporin schedule B, without cyclosporin
# [17] = Table 3, patient 10, cyclosporin schedule B
# [18] = Table 3, patient 10, cyclosporin schedule B, without cyclosporin
# [19] = Table 3, patient 11, cyclosporin schedule B
# [20] = Table 3, patient 11, cyclosporin schedule B, without cyclosporin
# [21] = Table 3, patient 13, cyclosporin schedule B
# [22] = Table 3, patient 13, cyclosporin schedule B, without cyclosporin
# [23] = Table 3, patient 14, cyclosporin schedule A
# [24] = Table 3, patient 14, cyclosporin schedule A, without cyclosporin
# [25] = Table 3, patient 15, cyclosporin schedule A
# [26] = Table 3, patient 15, cyclosporin schedule A, without cyclosporin
# [27] = Table 3, patient 17, cyclosporin schedule A
# [28] = Table 3, patient 17, cyclosporin schedule A, without cyclosporin
# [29] = Table 3, patient 18, cyclosporin schedule A
# [30] = Table 3, patient 18, cyclosporin schedule A, without cyclosporin
smiles,measurement,setting,value
COc1cc([C@@H]2c3cc4c(cc3[C@@H](O[C@@H]3O[C@@H]5CO[C@@H](C)O[C@H]5[C@H](O)[C@H]3O)[C@H]3COC(=O)[C@H]23)OCO4)cc(OC)c1O [etoposide],Mean change in etoposide AUC with cyclosporin,"15 patients, paired, P < 0.001",+89%
same,Mean change in etoposide clearance with cyclosporin,"15 patients, paired, P < 0.001",-48%
same,Clearance Cl+,[1],15.7 mL/min
same,Half-life t1/2+,[1],5.08 h
same,Area under drug concentration curve AUC+,[1],14.6 mg·min/mL
same,Clearance Cl-,[2],28.5 mL/min
same,Half-life t1/2-,[2],3.27 h
same,Area under drug concentration curve AUC-,[2],8.1 mg·min/mL
same,Clearance Cl+,[3],8.6 mL/min
same,Half-life t1/2+,[3],9.28 h
same,Area under drug concentration curve AUC+,[3],26.2 mg·min/mL
same,Clearance Cl-,[4],22.0 mL/min
same,Half-life t1/2-,[4],3.43 h
same,Area under drug concentration curve AUC-,[4],10.2 mg·min/mL
same,Clearance Cl+,[5],18.6 mL/min
same,Half-life t1/2+,[5],5.75 h
same,Area under drug concentration curve AUC+,[5],16.9 mg·min/mL
same,Clearance Cl-,[6],36.5 mL/min
same,Half-life t1/2-,[6],5.08 h
same,Area under drug concentration curve AUC-,[6],8.6 mg·min/mL
same,Clearance Cl+,[7],15.2 mL/min
same,Half-life t1/2+,[7],3.15 h
same,Area under drug concentration curve AUC+,[7],7.9 mg·min/mL
same,Clearance Cl-,[8],30.2 mL/min
same,Half-life t1/2-,[8],2 h
same,Area under drug concentration curve AUC-,[8],3.8 mg·min/mL
same,Clearance Cl+,[9],11.9 mL/min
same,Half-life t1/2+,[9],3.82 h
same,Area under drug concentration curve AUC+,[9],8.8 mg·min/mL
same,Clearance Cl-,[10],15.9 mL/min
same,Half-life t1/2-,[10],2.75 h
same,Area under drug concentration curve AUC-,[10],6.6 mg·min/mL
same,Clearance Cl+,[11],10.8 mL/min
same,Half-life t1/2+,[11],4.72 h
same,Area under drug concentration curve AUC+,[11],10.7 mg·min/mL
same,Clearance Cl-,[12],21.9 mL/min
same,Half-life t1/2-,[12],1.72 h
same,Area under drug concentration curve AUC-,[12],5.3 mg·min/mL
same,Clearance Cl+,[13],9.9 mL/min
same,Half-life t1/2+,[13],6.9 h
same,Area under drug concentration curve AUC+,[13],10.1 mg·min/mL
same,Clearance Cl-,[14],27.2 mL/min
same,Half-life t1/2-,[14],2.05 h
same,Area under drug concentration curve AUC-,[14],3.6 mg·min/mL
same,Clearance Cl+,[15],10.0 mL/min
same,Half-life t1/2+,[15],4.9 h
same,Area under drug concentration curve AUC+,[15],16.4 mg·min/mL
same,Clearance Cl-,[16],25.8 mL/min
same,Half-life t1/2-,[16],3.47 h
same,Area under drug concentration curve AUC-,[16],6.4 mg·min/mL
same,Clearance Cl+,[17],11.6 mL/min
same,Half-life t1/2+,[17],6.93 h
same,Area under drug concentration curve AUC+,[17],14.2 mg·min/mL
same,Clearance Cl-,[18],28.6 mL/min
same,Half-life t1/2-,[18],1.37 h
same,Area under drug concentration curve AUC-,[18],5.8 mg·min/mL
same,Clearance Cl+,[19],16.2 mL/min
same,Half-life t1/2+,[19],5.23 h
same,Area under drug concentration curve AUC+,[19],14.3 mg·min/mL
same,Clearance Cl-,[20],32.5 mL/min
same,Half-life t1/2-,[20],2.93 h
same,Area under drug concentration curve AUC-,[20],7.4 mg·min/mL
same,Clearance Cl+,[21],7.8 mL/min
same,Half-life t1/2+,[21],4.93 h
same,Area under drug concentration curve AUC+,[21],13.1 mg·min/mL
same,Clearance Cl-,[22],15.3 mL/min
same,Half-life t1/2-,[22],2.47 h
same,Area under drug concentration curve AUC-,[22],6.7 mg·min/mL
same,Clearance Cl+,[23],14.3 mL/min
same,Half-life t1/2+,[23],6.68 h
same,Area under drug concentration curve AUC+,[23],15.8 mg·min/mL
same,Clearance Cl-,[24],29.3 mL/min
same,Half-life t1/2-,[24],2.57 h
same,Area under drug concentration curve AUC-,[24],7.7 mg·min/mL
same,Clearance Cl+,[25],22.6 mL/min
same,Half-life t1/2+,[25],6.78 h
same,Area under drug concentration curve AUC+,[25],12.9 mg·min/mL
same,Clearance Cl-,[26],38.1 mL/min
same,Half-life t1/2-,[26],4.3 h
same,Area under drug concentration curve AUC-,[26],7.7 mg·min/mL
same,Clearance Cl+,[27],20.2 mL/min
same,Half-life t1/2+,[27],6.12 h
same,Area under drug concentration curve AUC+,[27],13.4 mg·min/mL
same,Clearance Cl-,[28],29.1 mL/min
same,Half-life t1/2-,[28],3.85 h
same,Area under drug concentration curve AUC-,[28],9.3 mg·min/mL
same,Clearance Cl+,[29],10.1 mL/min
same,Half-life t1/2+,[29],11.4 h
same,Area under drug concentration curve AUC+,[29],21.5 mg·min/mL
same,Clearance Cl-,[30],12.8 mL/min
same,Half-life t1/2-,[30],10.3 h
same,Area under drug concentration curve AUC-,[30],17.1 mg·min/mL
same,"Percentage increase in etoposide AUC, mean",cyclosporin 3-h infusion,106%
same,"Percentage increase in etoposide AUC, mean",cyclosporin 24-h infusion,89%
same,Median area under the concentration time curve for etoposide,with high-dose cyclosporin,12.5 mg·min/mL
same,Median area under the concentration time curve for etoposide,without cyclosporin,7.2 mg·min/mL
